Laboratory results: patent publication US20090030038A1, “Novel 8-Sulfonylamino-3 Aminosubstituted Chroman or Tetrahydronaphtalene Derivatives Modulating the 5Ht6 Receptor” (ASTRAZENECA AB, priority 2005, published 2009)

What follows are compounds tested against T1, rat striatal 5HT6 receptors (Rattus norvegicus, UniProt P31388) (assay: [125I]SB258585 binding to rat striatal 5HT6 receptors). Conditions: competition with [125I]SB258585, rat striatal membranes.
T1 construct: Striatal tissue from adult rats (Sprague-Dawley, 320-370 g, B & K Sweden) were dissected out, weighed and homogenized; from tissue; host or cells: rat striatum (Sprague-Dawley) membranes
Protocol: Method for [125I]SB258585 binding to rat striatal 5HT6 receptors
[125I]SB258585 (1) with specific activity 2000 Ci/mmol was purchased from Amersham Biosciences Europe GmbH, Freiburg, Germany. Other chemicals were purchased from commercial sources and were of analytical grade.
Striatal tissue from adult rats (Sprague-Dawley, 320-370 g, B & K Sweden) were dissected out, weighed and homogenized in buffer containing 50 mM Tris-HCl, 4 mM MgCl2, 1 mM EDTA, 10 μM pargyline and protease inhibitor (Complete, Roche Diagnostics) pH 7.4 using an Ultra-Turrax T8 (IKA Labortechnik, Germany). The tissue homogenate was centrifuged at 48 000×g for 10 min and the pellet was resuspended and recentrifuged as above. The final membranes were diluted in buffer to a concentration of 60 mg original wet weight (w.w.) per ml and stored in aliquots at −70° C.
Saturation binding studies were carried out in duplicate with 1-3 mg w.w. per tube in 0.5 ml buffer (50 mM Tris, 4 mM MgCl2, 100 mM NaCl, 1 mM EDTA, 5 mM ascorbate and 10 μM pargyline at pH 7.4), 0.2 nM [125I]SB258585 and unlabelled SB258585 to give a final concentration range of 0.23-20 nM (12 conc.). Non-specific binding was determined in the presence of 10 μM methiothepin. In the competition experiments 0.8-2 mg w.w. per tube and a radioligand concentration of 0.5-1 nM were used with 7 concentrations of the competing drug pre-dissolved in DMSO and diluted in buffer. The assays were incubated for 1-3 hours at room temperature, and terminated by rapid filtration through Whatman GF/B filters pretreated with 0.3% polyethyleneimine using a Brandel cell harvester. The radioactivity was determined in a Packard Tri-Carb 2900TR liquid scintillation counter. Data were analyzed by non-linear regression analyses using PRISM 4.00 (GraphPad Software Inc., San Diego, Calif.).
Hirst, W. D., Minton, J. A. L., Bromidge, S. M., Moss, S. F., Latter, A., Riley, G., Routledge, C., Middlemiss, D. N. & Price, G. W. (2000). Characterization of [125I]-SB-258585 binding to human recombinant and native 5HT6 receptors in rat, pig and human brain tissue. Br. J. Pharmacol., 130, 1597-1605.

T1 sequence (P31388 whole entry): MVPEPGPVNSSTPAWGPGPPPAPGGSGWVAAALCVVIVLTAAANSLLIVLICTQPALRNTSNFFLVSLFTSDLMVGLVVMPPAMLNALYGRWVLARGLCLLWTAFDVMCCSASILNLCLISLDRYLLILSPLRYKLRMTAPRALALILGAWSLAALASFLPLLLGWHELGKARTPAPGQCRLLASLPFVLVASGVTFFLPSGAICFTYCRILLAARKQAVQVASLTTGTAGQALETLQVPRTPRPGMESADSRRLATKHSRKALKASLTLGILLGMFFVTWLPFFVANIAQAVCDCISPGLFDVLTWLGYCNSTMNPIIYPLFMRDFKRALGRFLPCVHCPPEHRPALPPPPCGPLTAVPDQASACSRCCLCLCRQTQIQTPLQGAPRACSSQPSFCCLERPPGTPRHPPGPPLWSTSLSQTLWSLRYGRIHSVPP

| SMILES | Ki |
| --- | --- |
| COc1ccc(NS(=O)(=O)c2ccc3ccccc3c2)c2c1C[C@@H](N(C)C)CO2 [Example 24, N-[(3R)-3-(dimethylamino)-5-methoxy-3,4-dihydro-2H-chromen-8-yl]naphthalene-2-sulfonamide] | 42 ± 27 nM |
| COc1ccc(NS(=O)(=O)c2cccc(Br)c2)c2c1C[C@@H](N(C)C)CO2 [Example 3, 3-Bromo-N-[(3R)-3-(dimethylamino)-5-methoxy-3,4-dihydro-2H-chromen-8-yl]benzenesulfonamide] | 7.5 ± 3.6 nM |
| CN(C)[C@H]1CCc2c(cccc2NS(=O)(=O)c2cccc(Br)c2)C1 [Example 170, (2S)-5-{[(3-Bromophenyl)sulfonyl]amino}-N,N-dimethyl-1,2,3,4-tetrahydronaphthalen-2-ammonium Acetate] | 74 nM |

Second part, the compound after the results:

| Ki | SMILES |
| --- | --- |
| 49 ± 16 nM | COc1ccc(NS(=O)(=O)c2ccc(-c3ccnc(SC)n3)s2)c2c1C[C@@H](N(C)C)CO2 [Example 135, N-[(3R)-3-(dimethylamino)-5-methoxy-3,4-dihydro-2H-chromen-8-yl]-5-[2-(methylthio)pyrimidin-4-yl]thiophene-2-sulfonamide] |
| 13 ± 5.9 nM | COc1ccc(NS(=O)(=O)c2ccccc2-c2ccccc2)c2c1C[C@@H](N(C)C)CC2 [Example 176, N-[(6S)-6-(dimethylamino)-4-methoxy-5,6,7,8-tetrahydronaphthalen-1-yl]-1,1′-biphenyl-2-sulfonamide] |
| 290 ± 190 nM | COc1ccc(NS(=O)(=O)c2cc(Cl)cc(Cl)c2)c2c1C[C@@H](N1CCCC1)CC2 [Example 313, 3,5-Dichloro-N-[(6S)-4-methoxy-6-pyrrolidin-1-yl-5,6,7,8-tetrahydronaphthalen-1-yl]benzenesulfonamide] |
| 19 ± 0.8 nM | COc1ccc(NS(=O)(=O)c2sc3ccc(F)cc3c2C)c2c1C[C@@H](N(C)C)CC2 [Example 181, N-[(6S)-6-(dimethylamino)-4-methoxy-5,6,7,8-tetrahydronaphthalen-1-yl]-5-fluoro-3-methyl-1-benzothiophene-2-sulfonamide] |
| 2 ± 0.6 nM | COc1ccc(NS(=O)(=O)c2ccccc2-c2ccccc2)c2c1C[C@@H](N(C)C)CO2 [Example 122, N-[(3R)-3-(dimethylamino)-5-methoxy-3,4-dihydro-2H-chromen-8-yl]-1,1′-biphenyl-2-sulfonamide] |
